# Test results reported in PubChem BioAssay (NCI).
#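 A five-concentration, 48-hour dose response in 96-well plates underlies each endpoint, interpolated linearly between surrounding concentrations. GI50 marks 50% less growth. TGI: concentration producing complete growth inhibition.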
# What was measured:
# Experiment in all cases: NCI anticancer screen, dose series, 48 h
# MALME-3M melanoma = system: MALME-3M melanoma
# HOP-62 NSCLC = system: HOP-62 NSCLC
# SF-295 CNS = system: SF-295 CNS
# SNB-19 CNS = system: SNB-19 CNS
# M14 melanoma = system: M14 melanoma
# NCI-H23 lung = system: NCI-H23 lung
# HCC-2998 colon = system: HCC-2998 colon
# UACC-62 melanoma = system: UACC-62 melanoma
# OVCAR-3 ovarian = system: OVCAR-3 ovarian
# TK-10 renal = system: TK-10 renal
# SW-620 colon = system: SW-620 colon
# MDA-MB-231 breast = system: MDA-MB-231 breast
# A498 renal = system: A498 renal
# MCF7 breast = system: MCF7 breast
# SK-MEL-28 melanoma = system: SK-MEL-28 melanoma
# K-562 leukemia = system: K-562 leukemia
# HL-60(TB) leukemia = system: HL-60(TB) leukemia
# RPMI-8226 leukemia = system: RPMI-8226 leukemia
# SK-MEL-5 melanoma = system: SK-MEL-5 melanoma
# KM12 colon = system: KM12 colon
# CCRF-CEM leukemia = system: CCRF-CEM leukemia
# SK-MEL-2 melanoma = system: SK-MEL-2 melanoma
# EKVX NSCLC = system: EKVX NSCLC
# A549 NSCLC = system: A549 NSCLC
# NCI-H226 lung = system: NCI-H226 lung
# NCI-H522 lung = system: NCI-H522 lung
# NCI-H460 lung = system: NCI-H460 lung
# SNB-75 CNS = system: SNB-75 CNS
# IGROV1 ovarian = system: IGROV1 ovarian
# HCT-116 colon = system: HCT-116 colon
# COLO 205 colon = system: COLO 205 colon
# SR leukemia = system: SR leukemia
# BT-549 breast = system: BT-549 breast
# NCI/ADR-RES ovarian = system: NCI/ADR-RES ovarian
# SN12C renal = system: SN12C renal
# OVCAR-8 ovarian = system: OVCAR-8 ovarian
# UO-31 renal = system: UO-31 renal
# HS 578T breast = system: HS 578T breast
# CAKI-1 renal = system: CAKI-1 renal
# LOX IMVI melanoma = system: LOX IMVI melanoma
# T-47D breast = system: T-47D breast
# SF-268 CNS = system: SF-268 CNS
# PC-3 prostate = system: PC-3 prostate
# DU-145 prostate = system: DU-145 prostate
# U251 CNS = system: U251 CNS
# SF-539 CNS = system: SF-539 CNS
# HT29 colon = system: HT29 colon
# SK-OV-3 ovarian = system: SK-OV-3 ovarian
# OVCAR-4 ovarian = system: OVCAR-4 ovarian
# HCT-15 colon = system: HCT-15 colon
# UACC-257 melanoma = system: UACC-257 melanoma
# 786-0 renal = system: 786-0 renal
# MDA-MB-435 = system: MDA-MB-435
# RXF 393 renal = system: RXF 393 renal
# ACHN renal = system: ACHN renal
# OVCAR-5 ovarian = system: OVCAR-5 ovarian
# HOP-92 NSCLC = system: HOP-92 NSCLC
compound,measurement,setting,value
Cc1ccnc2c1ccc1c(C)ccnc12,GI50,MALME-3M melanoma,364 nM
same,TGI,MALME-3M melanoma,5270 nM
same,GI50,HOP-62 NSCLC,508 nM
same,TGI,HOP-62 NSCLC,12600 nM
same,GI50,SF-295 CNS,371 nM
same,TGI,SF-295 CNS,11700 nM
same,GI50,SNB-19 CNS,592 nM
same,TGI,SNB-19 CNS,13900 nM
same,GI50,M14 melanoma,294 nM
same,TGI,M14 melanoma,10200 nM
same,GI50,NCI-H23 lung,741 nM
same,TGI,NCI-H23 lung,20200 nM
same,GI50,HCC-2998 colon,381 nM
same,TGI,HCC-2998 colon,15100 nM
same,GI50,UACC-62 melanoma,288 nM
same,TGI,UACC-62 melanoma,1030 nM
same,GI50,OVCAR-3 ovarian,526 nM
same,TGI,OVCAR-3 ovarian,11400 nM
same,GI50,TK-10 renal,588 nM
same,TGI,TK-10 renal,14600 nM
same,GI50,SW-620 colon,429 nM
same,TGI,SW-620 colon,15900 nM
same,GI50,MDA-MB-231 breast,673 nM
same,TGI,MDA-MB-231 breast,21300 nM
same,GI50,A498 renal,327 nM
same,TGI,A498 renal,3710 nM
same,GI50,MCF7 breast,343 nM
same,TGI,MCF7 breast,12400 nM
same,GI50,SK-MEL-28 melanoma,491 nM
same,TGI,SK-MEL-28 melanoma,14200 nM
same,GI50,K-562 leukemia,395 nM
same,TGI,K-562 leukemia,25900 nM
same,GI50,HL-60(TB) leukemia,328 nM
same,TGI,HL-60(TB) leukemia,2390 nM
same,GI50,RPMI-8226 leukemia,468 nM
same,TGI,RPMI-8226 leukemia,14300 nM
same,GI50,SK-MEL-5 melanoma,303 nM
same,TGI,SK-MEL-5 melanoma,11800 nM
same,GI50,KM12 colon,504 nM
same,TGI,KM12 colon,12000 nM
same,GI50,CCRF-CEM leukemia,361 nM
same,TGI,CCRF-CEM leukemia,3000 nM
same,GI50,SK-MEL-2 melanoma,504 nM
same,TGI,SK-MEL-2 melanoma,18300 nM
same,GI50,EKVX NSCLC,389 nM
same,TGI,EKVX NSCLC,12700 nM
same,GI50,A549 NSCLC,386 nM
same,TGI,A549 NSCLC,11400 nM
same,GI50,NCI-H226 lung,412 nM
same,TGI,NCI-H226 lung,8210 nM
same,GI50,NCI-H522 lung,608 nM
same,TGI,NCI-H522 lung,4970 nM
same,GI50,NCI-H460 lung,339 nM
same,TGI,NCI-H460 lung,11300 nM
same,GI50,SNB-75 CNS,840 nM
same,TGI,SNB-75 CNS,14600 nM
same,GI50,IGROV1 ovarian,471 nM
same,TGI,IGROV1 ovarian,13600 nM
same,GI50,HCT-116 colon,418 nM
same,TGI,HCT-116 colon,13000 nM
same,GI50,COLO 205 colon,568 nM
same,TGI,COLO 205 colon,13000 nM
same,GI50,SR leukemia,382 nM
same,TGI,SR leukemia,> 100000 nM
same,GI50,BT-549 breast,521 nM
same,TGI,BT-549 breast,14300 nM
same,GI50,NCI/ADR-RES ovarian,204 nM
same,TGI,NCI/ADR-RES ovarian,1790 nM
same,GI50,SN12C renal,441 nM
same,TGI,SN12C renal,13100 nM
same,GI50,OVCAR-8 ovarian,397 nM
same,TGI,OVCAR-8 ovarian,14100 nM
same,GI50,UO-31 renal,246 nM
same,TGI,UO-31 renal,2910 nM
same,GI50,HS 578T breast,3950 nM
same,TGI,HS 578T breast,> 100000 nM
same,GI50,CAKI-1 renal,209 nM
same,TGI,CAKI-1 renal,10000 nM
same,GI50,LOX IMVI melanoma,367 nM
same,TGI,LOX IMVI melanoma,4660 nM
same,GI50,T-47D breast,883 nM
same,TGI,T-47D breast,12600 nM
same,GI50,SF-268 CNS,454 nM
same,TGI,SF-268 CNS,14600 nM
same,GI50,PC-3 prostate,430 nM
same,TGI,PC-3 prostate,15500 nM
same,GI50,DU-145 prostate,501 nM
same,TGI,DU-145 prostate,14200 nM
same,GI50,U251 CNS,419 nM
same,TGI,U251 CNS,11500 nM
same,GI50,SF-539 CNS,316 nM
same,TGI,SF-539 CNS,5060 nM
same,GI50,HT29 colon,491 nM
same,TGI,HT29 colon,12600 nM
same,GI50,SK-OV-3 ovarian,526 nM
same,TGI,SK-OV-3 ovarian,9610 nM
same,GI50,OVCAR-4 ovarian,316 nM
same,TGI,OVCAR-4 ovarian,4230 nM
same,GI50,HCT-15 colon,383 nM
same,TGI,HCT-15 colon,10400 nM
same,GI50,UACC-257 melanoma,508 nM
same,TGI,UACC-257 melanoma,7600 nM
same,GI50,786-0 renal,327 nM
same,TGI,786-0 renal,10900 nM
same,GI50,MDA-MB-435,481 nM
same,TGI,MDA-MB-435,13100 nM
same,GI50,RXF 393 renal,729 nM
same,TGI,RXF 393 renal,15100 nM
same,GI50,ACHN renal,357 nM
same,TGI,ACHN renal,10500 nM
same,GI50,OVCAR-5 ovarian,750 nM
same,TGI,OVCAR-5 ovarian,19000 nM
same,GI50,HOP-92 NSCLC,656 nM
same,TGI,HOP-92 NSCLC,16100 nM
